The source of these data is patent publication US9814709B2, “Bruton's tyrosine kinase inhibitor” (HEFEI INSTITUTES OF PHYSICAL SCIENCE, CHINESE ACADEMY OF …, priority 2014, dated 2017).

Each structure is given as a SMILES string.

Assay [1] deals with PLCγ2Y1217 phosphorylation. The assay is described as follows: Phosphorylation of PLCγ2 Y1217 in anti-IgM stimulated Ramos cells. Type of assay: cell-based. The following applies: Homo sapiens, 4 hrs treatment, anti-IgM 10 min, read-out: EC50, inhibition of phosphorylation of PLCγ2Y1217. As for the experimental part: (§1) We further characterized the properties of the compounds by assaying a number of cellular biochemical and functional endpoints. In particular, we assessed the selectivity of Compound 1 for inhibition of Btk versus the closely related protein kinases S6K, AKT, ErK, JAK3, and STAT5. Ramos cells (human B cells, purchased from ATCC) were treated with different concentrations of 10 nM, 100 nM, 1000 nM of the compounds of formula (I) for 4 hrs, followed by stimulation with anti-IgM for 10 min, and then the samples were harvested. We determined the effect of compounds on phosphorylation of BTKY223, PLCγ1Y783, PLCγ2Y759, PLCγ2Y1217, AKTT308, Erk1/2T202/204, JAK3 T980/981, STAT5 T694, mTORC1T389, MNK2 (FIG. 1).

Another assay addresses T1, EGFR (WT) (Homo sapiens, UniProt P00533).
T1 construct: The intracellular segment (699-1068) region of EGFR was cloned into the insect expression vector pAcG2T; GST; made in house; host or cells: SF9 insect cells (baculovirus)
As to the kind of experiment: In vitro enzymatic activity (ADP-Glo). The class given is biochemical. Conditions: 4 hrs preincubation, 10 μM ATP. As for the experimental part:
(§2) In the experimental assay of in vitro enzymatic activity, the IC50 values of Compound 1 and Compound 19 on different kinases including BTK, EGFR (WT), EGFR/T790M, EGFR L858R/T790M, JAK1, JAK2, and JAK3 were determined. The intracellular segment (699-1068) region of EGFR was cloned into the insect expression vector pAcG2T, and was protein expressed by using an insect expression system, BaculoGold™ Baculovirus Expression System (BD Pharmingen), with GST tag. The mutations of T790M and L858R sites were performed simultaneously to give T790M single mutant vector and T790M/L858R double mutant vector of EGFR, respectively. The established vectors were transfected into SF9 packaging viruses, so as to infect the SF9-expressed proteins with the viruses; JAK1 and JAK2 were purchased from Life Technologies (US) and Abcam (US), respectively; JAK3 and BTK were purchased from Progema (US).
(§3) BTK protein kinase 9 μL (concentration of 1.5 ng/μL), JAK1, JAK2, JAK3 protein kinases 9 μL (concentration of 3 ng/μL, 3 ng/μL, 1.5 ng/μL), purified EGFR (WT), EGFR (T790M), EGFR (T790M/L858R) protein kinases 9 μL (all with concentration of 6 ng/μL) were respectively used, and each was reacted with three-fold gradient dilution of pharmaceutical Compound 1 and Compound 19 (final concentrations of the agents were 10 μM, 3 μM, 1 μM, 0.3 μM, 0.1 μM, 0.03 μM, 0.01 μM, 0.003 μM), respectively, at room temperature for 4 hrs;
(§4) 2 μL of ATP and 3 μL of substrate, Poly(4:1 Glu, Tyr)Peptide (Promega, US), were added (final concentrations are 10 μM and 0.2 μg/μL, respectively), and reacted at 37° C. for 1 hr;
(§5) 5 μL of reacted kinase solution was added into 5 μL of ADP-Glo™ (Promega, US) and reacted at room temperature for 40 min, the kinase reaction was stopped and the remained ATP was consumed;
(§6) 10 μL of kinase detection reagent was added to transfer ADP into ATP, and the newly obtained ATP was detected by using coupled luciferase/fluorescein reaction, then the IC50 values were calculated by using a plotting method based on the Envision reading.

The next assay deals with T2, JAK3 (Homo sapiens, UniProt P52333).
T2 construct: purchased Progema (US) [sic; Promega]
T2 sequence (P52333 whole entry): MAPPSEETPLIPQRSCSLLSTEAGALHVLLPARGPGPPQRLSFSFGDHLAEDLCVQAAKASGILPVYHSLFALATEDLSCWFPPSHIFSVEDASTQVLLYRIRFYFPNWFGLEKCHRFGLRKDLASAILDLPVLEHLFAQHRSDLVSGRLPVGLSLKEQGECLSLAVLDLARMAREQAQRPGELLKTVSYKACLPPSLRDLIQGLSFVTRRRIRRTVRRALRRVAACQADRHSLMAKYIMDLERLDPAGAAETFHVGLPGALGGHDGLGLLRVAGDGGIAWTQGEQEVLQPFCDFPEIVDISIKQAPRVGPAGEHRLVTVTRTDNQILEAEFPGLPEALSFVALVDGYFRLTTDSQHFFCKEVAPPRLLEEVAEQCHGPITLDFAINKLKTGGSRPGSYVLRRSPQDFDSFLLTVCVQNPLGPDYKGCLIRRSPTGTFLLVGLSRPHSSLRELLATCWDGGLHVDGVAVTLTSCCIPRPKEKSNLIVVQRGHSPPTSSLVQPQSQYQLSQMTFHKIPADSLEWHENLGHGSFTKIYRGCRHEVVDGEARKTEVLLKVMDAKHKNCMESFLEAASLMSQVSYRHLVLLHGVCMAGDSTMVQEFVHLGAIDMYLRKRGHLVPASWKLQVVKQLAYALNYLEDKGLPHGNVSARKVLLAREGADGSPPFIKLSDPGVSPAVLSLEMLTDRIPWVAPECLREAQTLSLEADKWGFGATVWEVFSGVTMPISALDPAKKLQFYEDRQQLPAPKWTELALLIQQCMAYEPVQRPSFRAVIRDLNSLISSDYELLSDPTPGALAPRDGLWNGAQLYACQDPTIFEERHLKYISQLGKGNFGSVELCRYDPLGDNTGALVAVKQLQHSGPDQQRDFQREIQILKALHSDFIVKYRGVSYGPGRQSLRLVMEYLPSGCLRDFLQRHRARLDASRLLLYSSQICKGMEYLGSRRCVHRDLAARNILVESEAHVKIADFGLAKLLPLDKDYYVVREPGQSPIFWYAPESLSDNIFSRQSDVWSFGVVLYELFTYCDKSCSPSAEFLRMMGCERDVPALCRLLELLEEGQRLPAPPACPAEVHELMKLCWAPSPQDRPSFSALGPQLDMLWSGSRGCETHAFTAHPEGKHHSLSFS
The assay is described as follows: In vitro enzymatic activity (ADP-Glo). The following applies: 4 hrs preincubation, 10 μM ATP. The class given is biochemical. As for the experimental part: as §2, §3, §4, §5, §6
For orientation: ADP-Glo turns the ADP formed in a reaction into a luminescent signal.

In a further assay the target is T3, EGFR (T790M) (Homo sapiens, UniProt P00533, T790M).
T3 construct: The intracellular segment (699-1068) region of EGFR was cloned into the insect expression vector pAcG2T; GST; made in house; host or cells: SF9 insect cells (baculovirus)
T3 sequence (P00533 699-1068 T790M): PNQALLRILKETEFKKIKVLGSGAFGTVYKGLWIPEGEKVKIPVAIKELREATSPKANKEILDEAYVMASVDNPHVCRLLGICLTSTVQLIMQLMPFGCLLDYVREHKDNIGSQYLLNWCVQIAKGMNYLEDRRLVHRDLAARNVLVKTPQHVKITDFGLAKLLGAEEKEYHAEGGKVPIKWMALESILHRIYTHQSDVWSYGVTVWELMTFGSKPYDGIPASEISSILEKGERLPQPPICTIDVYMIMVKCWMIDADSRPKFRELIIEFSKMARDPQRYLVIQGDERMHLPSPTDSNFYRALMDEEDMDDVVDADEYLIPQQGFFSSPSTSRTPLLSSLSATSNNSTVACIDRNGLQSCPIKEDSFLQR
The assay is described as follows: In vitro enzymatic activity (ADP-Glo). The class given is biochemical. The following applies: 4 hrs preincubation, 10 μM ATP. As to the method: as §2, §3, §4, §5, §6

The next assay deals with T4, EGFR (T790M/L858R) (Homo sapiens, UniProt P00533, L858R/T790M).
T4 construct: The intracellular segment (699-1068) region of EGFR was cloned into the insect expression vector pAcG2T; GST; made in house; host or cells: SF9 insect cells (baculovirus)
T4 sequence (P00533 699-1068 T790M/L858R): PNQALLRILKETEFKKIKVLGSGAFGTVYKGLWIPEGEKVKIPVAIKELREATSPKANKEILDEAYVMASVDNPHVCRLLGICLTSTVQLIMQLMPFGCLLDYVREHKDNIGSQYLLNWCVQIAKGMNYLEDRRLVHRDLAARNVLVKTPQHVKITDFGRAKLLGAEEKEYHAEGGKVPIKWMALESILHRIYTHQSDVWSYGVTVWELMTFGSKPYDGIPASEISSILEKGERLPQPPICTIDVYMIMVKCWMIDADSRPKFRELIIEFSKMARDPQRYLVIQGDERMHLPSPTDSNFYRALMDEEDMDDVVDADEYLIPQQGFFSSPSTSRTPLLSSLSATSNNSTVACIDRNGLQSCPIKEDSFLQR
As to the kind of experiment: In vitro enzymatic activity (ADP-Glo). The class given is biochemical. Conditions: 4 hrs preincubation, 10 μM ATP. As to the method:
as §2, §3, §4, §5, §6

Another assay addresses BTK (Homo sapiens, UniProt Q06187). As to the kind of experiment: In vitro enzymatic activity (ADP-Glo). The class given is biochemical. Set-up: purchased Progema (US) [sic; Promega]. Conditions: 4 hrs preincubation, 10 μM ATP. As to the method: as §2, with “(US). […]” for “(US).”
as §6

For the next assay, the target named is T5, tyrosine Y223 on Btk (Homo sapiens, UniProt Q06187).
T5 construct: host or cells: Ramos cells
T5 sequence (Q06187 whole entry): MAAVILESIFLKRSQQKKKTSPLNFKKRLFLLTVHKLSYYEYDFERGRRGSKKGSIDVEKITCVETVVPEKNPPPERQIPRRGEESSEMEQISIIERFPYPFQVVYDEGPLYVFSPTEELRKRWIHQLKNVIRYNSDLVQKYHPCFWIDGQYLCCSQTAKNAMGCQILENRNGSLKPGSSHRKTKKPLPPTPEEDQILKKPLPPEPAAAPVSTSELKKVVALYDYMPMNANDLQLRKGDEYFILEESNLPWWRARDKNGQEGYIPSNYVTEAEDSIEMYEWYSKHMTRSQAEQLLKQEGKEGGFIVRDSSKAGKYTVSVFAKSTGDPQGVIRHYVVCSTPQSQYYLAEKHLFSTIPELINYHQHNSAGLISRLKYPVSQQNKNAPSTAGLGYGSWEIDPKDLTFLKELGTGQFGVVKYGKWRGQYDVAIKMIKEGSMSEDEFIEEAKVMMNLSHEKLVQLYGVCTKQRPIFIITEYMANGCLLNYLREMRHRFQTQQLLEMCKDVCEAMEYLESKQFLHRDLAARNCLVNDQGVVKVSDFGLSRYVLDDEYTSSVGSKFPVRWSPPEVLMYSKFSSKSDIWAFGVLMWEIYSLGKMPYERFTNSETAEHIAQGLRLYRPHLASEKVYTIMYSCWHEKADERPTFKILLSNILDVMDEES
As to the kind of experiment: Phosphorylation of BTK Y223 in anti-IgM stimulated Ramos cells. The following applies: 4 hrs treatment, anti-IgM 10 min, read-out: EC50, inhibition of phosphorylation of tyrosine Y223 on Btk. Type of assay: cell-based. As for the experimental part: as §1

T1 sequence (P00533 699-1068): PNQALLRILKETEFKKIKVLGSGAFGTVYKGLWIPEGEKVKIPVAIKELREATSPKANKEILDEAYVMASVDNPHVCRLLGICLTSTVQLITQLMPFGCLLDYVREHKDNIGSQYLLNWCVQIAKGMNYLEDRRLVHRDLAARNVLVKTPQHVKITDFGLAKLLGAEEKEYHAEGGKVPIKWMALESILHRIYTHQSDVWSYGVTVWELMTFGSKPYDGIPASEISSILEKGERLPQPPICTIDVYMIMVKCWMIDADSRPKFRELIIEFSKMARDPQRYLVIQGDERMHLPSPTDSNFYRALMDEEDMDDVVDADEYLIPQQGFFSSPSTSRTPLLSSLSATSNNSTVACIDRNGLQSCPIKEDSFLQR
Sequence of BTK (Q06187 whole entry): as the sequence (Q06187 whole entry) above

As a reminder, the EC50 is the midpoint of the concentration-response curve. The term IC50 denotes the concentration needed to halve the response being measured. Take `C=CC(=O)Nc1cc(-n2c(=O)ccc3cnc4ccc(-n5cccn5)cc4c32)ccc1C` [Compound 1, N-(2-methyl-5-(2-oxo-9-(1H-pyrazol-1-yl)benzo[H][1,6]naphthyridin-1(2H)-yl)phenyl)acrylamide]: the EC50 in assay [1] stood at 0.36 µM; on tyrosine Y223 on Btk it was 0.217 µM. Also, the IC50 against EGFR (WT) was 2.45 µM; on JAK3, 0.169 µM; on EGFR (T790M), 5.5 µM; on EGFR (T790M/L858R), 1.34 µM; against BTK it was 0.0756 µM.
